Measured values: patent US12454529B2, “Piperazine cyclic ureas” (SIRONAX LTD., priority 2020, dated 2025)
pEC50: −log10 of the molar value.

test system: HT-29 cells; experiment: HT-29 cell necrosis/necroptosis inhibition (TNF-α + SMAC mimetic + zVAD-FMK; CellTiter-Glo cell viability); type: cell-based; settings: Homo sapiens; HT-29 cells, TNF-α 10 ng/ml + SMAC mimetic 6 μM + zVAD-FMK 10 μM, 20 hours; geometric mean, 10 points in duplicate; read-out: EC50 (Cell activity; Necrosis/Necroptosis Inhibitory Activity, Compounds 1-142)
In short: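 HT-29 cells (~5,000/well) were switched to FBS-free McCOY's 5A holding TNF-α (10 ng/ml), SMAC mimetic (6 μM) and zVAD-FMK (10 μM), then dosed with a 10-point 1:3 series for 20 h at 37 °C. CellTiter-Glo luminescence gave viability; geometric mean EC50 from duplicates.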

Row | Compound | pEC50
1 | N#Cc1cc(F)cc([C@@H]2CC=NN2C(=O)N2CCN(c3ncc(F)c(-n4cnc(Cl)n4)n3)CC2)c1 [Compound 126, (S)-3-(1-(4-(4-(3-chloro-1H-1,2,4-triazol-1-yl)-5-fluoropyrimidinyl)piperazine-1-carbonyl)-4,5-dihydro-1H-pyrazol-5-yl)-5-fluorobenzonitrile] | 7.00 to 10.00
2 | Cc1cc(-c2nc(N3CCN(C(=O)N4N=CC[C@H]4c4cncc(F)c4)CC3)ncc2F)n(C)n1 [Compound 86, (S)-(4-(4-(1,3-dimethyl-1H-pyrazol-5-yl)-5-fluoropyrimidinyl)piperazin-1-yl)(5-(5-fluoropyridin-3-yl)-4,5-dihydro-1H-pyrazol-1-yl)methanone] | 7.00 to 10.00
3 | Cc1cnn(C)c1-c1nc(N2CCN(C(=O)N3N=CC[C@H]3c3cc(F)cc(F)c3)CC2)ncc1F [Compound 61, (S)-(5-(3,5-difluorophenyl)-4,5-dihydro-1H-pyrazol-1-yl)(4-(4-(1,4-dimethyl-1H-pyrazol-5-yl)-5-fluoropyrimidin-2-yl)piperazin-1-yl)methanone] | 7.00 to 10.00
4 | N#Cc1cccc([C@@H]2CC=NN2C(=O)N2CCN(c3nccc(-c4cc[nH]n4)n3)CC2)c1 [Compound 37, (S)-3-(1-(4-(4-(1H-pyrazol-3-yl)pyrimidin-2-yl)piperazine-1-carbonyl)-4,5-dihydro-1H-pyrazol-5-yl)benzonitrile] | 7.00 to 10.00
5 | NC(=O)c1cnn(-c2nc(N3CCN(C(=O)N4N=CC[C@H]4c4cccc(F)c4)CC3)ncc2F)c1 [Compound 110, (S)-1-(5-fluoro-2-(4-(5-(3-fluorophenyl)-4,5-dihydro-1H-pyrazole-1-carbonyl)piperazin-1-yl)pyrimidin-4-yl)-1H-pyrazole-4-carboxamide] | 7.00 to 10.00
6 | Cc1nn(CC2COC2)c(C)c1-c1nc(N2CCN(C(=O)N3N=CC[C@H]3c3cc(F)cc(C#N)c3)CC2)ncc1F [Compound 135, (S)-3-(1-(4-(4-(3,5-dimethyl-1-(oxetan-3-ylmethyl)-1H-pyrazol-4-yl)-5-fluoropyrimidin-2-yl)piperazine-1-carbonyl)-4,5-dihydro-1H-pyrazol-5-yl) fluorobenzonitrile] | 7.00 to 10.00
7 | Cc1nn(-c2nc(N3CCN(C(=O)N4N=CC[C@H]4c4cc(F)cc(C#N)c4)CC3)ncc2F)c(=O)n1C [Compound 96, (S)-3-(1-(4-(4-(3,4-dimethyl-5-oxo-4,5-dihydro-1H-1,2,4-triazol-1-yl)-5-fluoropyrimidin-2-yl)piperazine-1-carbonyl)-4,5-dihydro-1H-pyrazol-5-yl)-5-fluorobenzonitrile] | 7.00 to 10.00
8 | Cn1nccc1-c1nc(N2CCN(C(=O)N3N=CC[C@H]3c3cc(F)cc(C#N)c3)CC2)ncc1F [Compound 69, (S)-3-fluoro-5-(1-(4-(5-fluoro-4-(1-methyl-1H-pyrazol-5-yl)pyrimidin-2-yl)piperazine-1-carbonyl)-4,5-dihydro-1H-pyrazol-5-yl)benzonitrile] | 7.00 to 10.00
9 | O=C(N1CCN(c2nccc(-c3cc[nH]n3)n2)CC1)N1N=CC[C@H]1c1cccc(F)c1 [Compound 35, (S)-(4-(4-(1H-pyrazol-3-yl)pyrimidin-2-yl)piperazin-1-yl)(5-(3-fluorophenyl)-4,5-dihydro-1H-pyrazol-1-yl)methanone] | 7.00 to 10.00

same assay, conditions: Homo sapiens; HT-29 cells, TNF-α 10 ng/ml + SMAC mimetic 6 μM + zVAD-FMK 10 μM, 20 hours; geometric mean, 10 points in duplicate; read-out: EC50 (Cell activity; Necrosis/Necroptosis Inhibitory Activity, Compounds 143-323)

Row | Compound | pEC50
10 | Cc1nc(C)n(-c2nc(N3CCN(C(=O)N4N=CC[C@H]4c4cc(F)cc(C#N)c4)CC3)ncc2Cl)n1 [Compound 260, (S)-3-(1-(4-(5-chloro-4-(3,5-dimethyl-1H-1,2,4-triazol-1-yl)pyrimidin-2-yl)piperazine-1-carbonyl)-4,5-dihydro-1H-pyrazol-5-yl)-5-fluorobenzonitrile] | 7.00 to 10.00
11 | CCn1nc(C)n(-c2nc(N3CCN(C(=O)N4N=CC[C@H]4c4cc(F)cc(C#N)c4)CC3)ncc2F)c1=O [Compound 183, (S)-3-(1-(4-(4-(1-ethyl-3-methyl-5-oxo-1,5-dihydro-4H-1,2,4-triazol-4-yl)-5-fluoropyrimidin-2-yl)piperazine-1-carbonyl)-4,5-dihydro-1H-pyrazol-5-yl)-5-fluorobenzonitrile] | 7.00 to 10.00
12 | Cn1nc(C#N)nc1-c1nc(N2CCN(C(=O)N3N=CCC3c3cc(F)cc(F)c3)CC2)ncc1F (centres unmarked) [Compound 228, 5-(2-(4-(5-(3,5-difluorophenyl)-4,5-dihydro-1H-pyrazole-1-carbonyl)piperazin-1-yl)-5-fluoropyrimidin-4-yl)-1-methyl-1H-1,2,4-triazole-3-carbonitrile] | 7.00 to 10.00
13 | Cc1csc(C2CC=NN2C(=O)N2CCN(c3cc(-c4c(C)cnn4C)ncc3F)CC2)n1 (centres unmarked) [Compound 157, (4-(2-(1,4-dimethyl-1H-pyrazol-5-yl)-5-fluoropyridin-4-yl)piperazin-1-yl)(5-(4-methylthiazol-2-yl)-4,5-dihydro-1H-pyrazol-1-yl)methanone] | 6.00 to 7.00
14 | Cc1cnn(C)c1-c1cc(N2CCN(C(=O)N3N=CCC3c3nccs3)CC2)c(F)cn1 (centres unmarked) [Compound 294, (4-(2-(1,4-dimethyl-1H-pyrazol-5-yl)-5-fluoropyridin-4-yl)piperazin-1-yl)(5-(thiazol-2-yl)-4,5-dihydro-1H-pyrazol-1-yl)methanone] | 6.00 to 7.00
15 | Cc1nc(C)n(-c2cc(N3CCN(C(=O)N4N=CC[C@H]4c4cc(F)cc(F)c4)CC3)c(F)cn2)n1 [Compound 271, (S)-(5-(3,5-difluorophenyl)-4,5-dihydro-1H-pyrazol-1-yl)(4-(2-(3,5-dimethyl-1H-1,2,4-triazol-1-yl)-5-fluoropyridin-4-yl)piperazin-1-yl)methanone] | 7.00 to 10.00
16 | Cc1nc(C)n(-c2nc(N3CCN(C(=O)N4N=CC[C@@H]4c4cnc(C)s4)CC3)ncc2F)n1 [Compound 239, (R)-(4-(4-(3,5-dimethyl-1H-1,2,4-triazol-1-yl)-5-fluoropyrimidinyl)piperazin-1-yl)(5-(2-methylthiazol-5-yl)-4,5-dihydro-1H-pyrazol-1-yl)methanone] | 5.00 to 6.00
17 | Cc1nn(-c2cc(N3CCN(C(=O)N4N=CC[C@H]4c4cncc(F)c4)CC3)ncn2)c(C)c1C#N [Compound 286, (S)-1-(6-(4-(5-(5-fluoropyridin-3-yl)-4,5-dihydro-1H-pyrazole-1-carbonyl)piperazin-1-yl)pyrimidin-4-yl)-3,5-dimethyl-1H-pyrazole-4-carbonitrile] | 7.00 to 10.00
18 | Cn1cnnc1-c1nc(N2CCN(C(=O)N3N=CC[C@H]3c3cc(F)cc(C#N)c3)CC2)ncc1F [Compound 197, (S)-3-fluoro-5-(1-(4-(5-fluoro-4-(4-methyl-4H-1,2,4-triazol-3-yl)pyrimidin-2-yl)piperazine-1-carbonyl)-4,5-dihydro-1H-pyrazol-5-yl)benzonitrile] | 5.00 to 6.00
19 | Cc1nc(C(F)(F)F)nn1-c1nc(N2CCN(C(=O)N3N=CC[C@H]3c3cc(F)cc(F)c3)CC2)ncc1F [Compound 203, (S)-(5-(3,5-difluorophenyl)-4,5-dihydro-1H-pyrazol-1-yl)(4-(5-fluoro-4-(5-methyl-3-(trifluoromethyl)-1H-1,2,4-triazol-1-yl)pyrimidin-2-yl)piperazin-1-yl)methanone] | 7.00 to 10.00
20 | Cc1nc(C#N)nn1-c1nc(N2CCN(C(=O)N3N=CC[C@H]3c3cncc(F)c3)CC2)ncc1F [Compound 255, (S)-1-(5-fluoro-2-(4-(5-(5-fluoropyridin-3-yl)-4,5-dihydro-1H-pyrazole-1-carbonyl)piperazin-1-yl)pyrimidin-4-yl)-5-methyl-1H-1,2,4-triazole-3-carbonitrile] | 7.00 to 10.00
